Test results taken from patent US8664406B2, “Fluorescent probe compounds, preparation method and use thereof” (Dalian University of Technology, priority 2009, dated 2014).

How the values were obtained:
[1] = pH range 4.9 to 7.7, aqueous solution, ionic strength 0.1
Description: The pHs of RHg1 aqueous solution and RHg1/Hg^2+ aqueous solution (ionic strength of 0.1, respectively) were adjusted to about 4.9, after measurement of fluorescence signal, a base solution was added slowly to adjust pH to 7.7, and the corresponding fluorescence signal change was measure, the results is shown in FIG. 3. […] The instrument is fluorospectrophotometer, model: LS 55.

[2] = RHg1 1 μM, sea water, Hg^2+ 1 to 5 ppb
Description: The application of the fluorescence probe of the present invention in sea water is described below. Namely, the probe is dissolved in an organic solvent or an organic solvent/water to form a probe solution. Some amount of the probe solution is added into the sea water sample containing Hg^2+ and the mixture is reacted for 10 to 30 min, and then fluorescence is detected.
The instrument is fluorospectrophotometer, model: LS 55.

[3] = RHg1 3 μM, L-cysteine 10 μM, Hg^2+ 1 μM
Description: The fluorescence of RHg1 (3 μM) was tested first, then the fluorescence of RHg1 after addition of L-cysteine (10 μM) or Hg^2+ (1 μM) was tested, and finally the fluorescence of the mixed solution containing RHg1, L-cysteine and Hg^2+ was tested. […] The instrument is Nikon eclipase TE 2000-5.

[4] = tested on: Hela cells; settings: 37° C., 30 min, RHg1 10 μM
Description: In order to investigate the ability of probe to track Hg^2+ in living cells, the following experiment is carried out. A neutral buffer containing the probe is added into cells, and then cells are incubated for 0.5 h in an incubator of 37° C. containing 5% CO2. The obtained cells are fully washed with the buffer or the culture medium and then imaged with fluorescent microscope to give a blank image. On the other hand, Hg(NO3)2 solution (final concentration is made to 10 μM) is added into the culture containing cells and the probe, and then cells are incubated for 0.5 h in an incubator of 37° C. containing 5% CO2. The obtained cells are washed with the culture medium and then imaged with fluorescent microscope to give an image showing intracellular distribution of Hg^2+, by which the information about the presence of Hg^2+ and regional distribution of Hg^2+ in cells is obtained.
The instrument is Nikon eclipase TE 2000-5.

[5] = probe 5 μM, ethanol/water=1/1 v/v; for fluorescence and UV-Vis absorption enhancement induced by Hg^2+: Hg^2+ 15 equivalence; for selectivity to Hg^2+: metal ions 50 equivalence (Hg^2+ 15 equivalence), without the interference from Na^+, K^+, Ca^2+, Mg^2+, Cu^2+ and so on

| Structure (SMILES) | fluorescence and UV-Vis absorption enhancement induced by Hg^2+ [5] | selectivity to Hg^2+ [5] | also measured |
| --- | --- | --- | --- |
| CCN(CC)c1ccc2c(c1)Oc1cc(N(CC)CC)ccc1C21c2ccccc2C(=O)N1/N=C/C=N/c1ccccc1O [RHg1] | large fluorescence and UV-Vis absorption enhancement | good selectivity | effect of pH change on fluorescence emission [1]: nearly not effected; relationship between fluorescence intensity and Hg^2+ concentration [2]: good linear relationship; effect of L-cysteine on Hg^2+ detection [3]: little effects; fluorescence in living Hela cells without Hg^2+ [4]: very weak; fluorescence in living Hela cells with Hg^2+ added ([4]; Hg^2+ 10 μM): very strong |
| CCN(CC)c1ccc2c(c1)Oc1cc(N(CC)CC)ccc1C21c2ccccc2C(=O)N1/N=C/C=N/c1ccccc1C [RHg2] | large fluorescence and UV-Vis absorption enhancement | good selectivity | – |
| CCN(CC)c1ccc2c(c1)Oc1cc(N(CC)CC)ccc1C21c2ccccc2C(=O)N1/N=C/C=N/c1ccccc1 [RHg3] | large fluorescence and UV-Vis absorption enhancement | good selectivity | – |
| CCN(CC)c1cc2c(cc1C)C1(c3ccc(N)cc3O2)c2ccccc2C(=O)N1/N=C/C=N/c1ccccc1 (stereo not shown) [RHg7] | large fluorescence and UV-Vis absorption enhancement | good selectivity | – |
| CCN(CC)c1cc2c(cc1C)C1(c3ccc(N)cc3O2)c2ccccc2C(=O)N1/N=C/C=N/c1ccc(C#N)cc1 (stereo not shown) [RHg8] | large fluorescence and UV-Vis absorption enhancement | good selectivity | – |
| CCN(CC)c1cc2c(cc1C)C1(c3ccc(N)cc3O2)c2ccccc2C(=O)N1/N=C/C=N/c1ccc(NC(C)=O)cc1 (stereo not shown) [RHg9] | large fluorescence and UV-Vis absorption enhancement | good selectivity | – |
| CCN(CC)c1cc2c(cc1C)C1(c3ccc(N)cc3O2)c2ccccc2C(=O)N1/N=C/C=N/c1ccc(Nc2ccccc2)cc1 (stereo not shown) [RHg10] | large fluorescence and UV-Vis absorption enhancement | good selectivity | – |
| CCN(CC)c1cc2c(cc1C)C1(c3ccc(N)cc3O2)c2ccccc2C(=O)N1/N=C/C=N/c1ccc(C(C)=O)cc1 (stereo not shown) [RHg11] | large fluorescence and UV-Vis absorption enhancement | good selectivity | – |
| CCNc1cc2c(cc1C)C1(c3cc(C)c(NCC)cc3O2)c2ccccc2C(=O)N1/N=C/C=N/c1ccc(OC)cc1 [RHg13] | large fluorescence and UV-Vis absorption enhancement | good selectivity | – |
| CCNc1cc2c(cc1C)C1(c3cc(C)c(NCC)cc3O2)c2ccccc2C(=O)N1/N=C/C=N/c1ccc(CCl)cc1 [RHg14] | large fluorescence and UV-Vis absorption enhancement | good selectivity | – |
| CCNc1cc2c(cc1C)C1(c3cc(C)c(NCC)cc3O2)c2ccccc2C(=O)N1/N=C/C=N/c1ccc(C(=O)O)cc1 [RHg15] | large fluorescence and UV-Vis absorption enhancement | good selectivity | – |
| CCNc1cc2c(cc1C)C1(c3cc(C)c(NCC)cc3O2)c2ccccc2C(=O)N1/N=C/C=N/c1ccc(Nc2ccccc2)cc1 [RHg17] | large fluorescence and UV-Vis absorption enhancement | good selectivity | – |
| CCN(CC)c1ccc2c(c1)Oc1cc(N)ccc1C21c2ccccc2C(=O)N1/N=C/C=N/c1ccc(Br)cc1 (stereo not shown) [RHg18] | large fluorescence and UV-Vis absorption enhancement | good selectivity | – |
| CCN(CC)c1ccc2c(c1)Oc1cc(N)ccc1C21c2ccccc2C(=O)N1/N=C/C=N/c1ccc(OC)cc1 (stereo not shown) [RHg19] | large fluorescence and UV-Vis absorption enhancement | good selectivity | – |
| CCN(CC)c1ccc2c(c1)Oc1cc(N)ccc1C21c2ccccc2C(=O)N1/N=C/C=N/c1ccc(OCCOCCO)cc1 (stereo not shown) [RHg20] | large fluorescence and UV-Vis absorption enhancement | good selectivity | – |
| Nc1ccc2c(c1)Oc1cc(N)ccc1C21c2ccccc2C(=O)N1/N=C/C=N/c1ccc(OCCOCCO)cc1 [RHg22] | large fluorescence and UV-Vis absorption enhancement | good selectivity | – |
| Nc1ccc2c(c1)Oc1cc(N)ccc1C21c2ccccc2C(=O)N1/N=C/C=N/c1ccc(C(=O)O)cc1 [RHg23] | large fluorescence and UV-Vis absorption enhancement | good selectivity | – |
| Nc1ccc2c(c1)Oc1cc(N)ccc1C21c2ccccc2C(=O)N1/N=C/C=N/c1ccc(Nc2ccccc2)cc1 [RHg24] | large fluorescence and UV-Vis absorption enhancement | good selectivity | – |
| Cc1c(/N=C/C=N/N2C(=O)c3ccccc3C23c2ccc(N)cc2Oc2cc(N)ccc23)cccc1C(F)(F)F [RHg25] | large fluorescence and UV-Vis absorption enhancement | good selectivity | – |
